From BindingDB's records for doi:10.1016/j.bmcl.2010.10.094 (Universit&#224, 2010)

target: carbonic anhydrase XII (human); assay: Inhibition of human recombinant CA12 catalytic domain by stopped-flow CO2 hydration method

Row | Structure (SMILES) | Ki
1 | CCCOc1cc2oc(=O)ccc2cc1C(C)=O [6-acetyl-7-propoxy-2H-chromen-2-one] | > 100000 nM
2 | CCOc1ccc2ccc(=O)oc2c1C(=O)CC [7-ethoxy-8-propionyl-2H-chromen-2-one] | 33.2 nM
3 | CC(=O)c1c(OCCC23CC4CC(CC(C4)C2)C3)ccc2ccc(=O)oc12 [8-Acetyl-7-(2-adamantan-1-yl-ethoxy)-chromen-2-one] | 31.5 nM
4 | CC(=O)c1c(OCc2ccccc2)ccc2ccc(=O)oc12 [8-acetyl-7-(benzyloxy)-2H-chromen-2-one] | 22.4 nM
5 | CCOc1ccc2ccc(=O)oc2c1C(C)=O [8-acetyl-7-ethoxy-2H-chromen-2-one] | 1 nM
6 | CCCOc1ccc2ccc(=O)oc2c1C(C)=O [8-acetyl-7-propoxy-2H-chromen-2-one] | 0.98 nM
